Assay results reported in patent US12071425B2 (Genentech, Inc., priority 2018, dated 2024).
Counter-ions that a name gives are not always drawn.

Target: kinase domain of IRE1 alpha (His-tagged kinase dead construct KR, AA G547-L977, D688N) (Homo sapiens (Human), UniProt O75460, D688N)
Assay: IRE1α TR-FRET competition binding assay
Settings: competition with Kinase Tracer 236, 0.1 μM; one hour at room temperature
In short: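 Compound displacement of an ATP-site fluorescent tracer (0.1 μM final) measured by TR-FRET after 1 h at room temperature. Protein, a His-tagged D688N kinase/RNase construct from Sf9 cells (0.006 μM final), was pre-bound 1 h at 4° C to Eu anti-His antibody (0.002 μM) in pH 7.5 HEPES buffer.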

Chain of kinase domain of IRE1 alpha (His-tagged kinase dead construct KR, AA G547-L977, D688N) (O75460 547-977 D688N): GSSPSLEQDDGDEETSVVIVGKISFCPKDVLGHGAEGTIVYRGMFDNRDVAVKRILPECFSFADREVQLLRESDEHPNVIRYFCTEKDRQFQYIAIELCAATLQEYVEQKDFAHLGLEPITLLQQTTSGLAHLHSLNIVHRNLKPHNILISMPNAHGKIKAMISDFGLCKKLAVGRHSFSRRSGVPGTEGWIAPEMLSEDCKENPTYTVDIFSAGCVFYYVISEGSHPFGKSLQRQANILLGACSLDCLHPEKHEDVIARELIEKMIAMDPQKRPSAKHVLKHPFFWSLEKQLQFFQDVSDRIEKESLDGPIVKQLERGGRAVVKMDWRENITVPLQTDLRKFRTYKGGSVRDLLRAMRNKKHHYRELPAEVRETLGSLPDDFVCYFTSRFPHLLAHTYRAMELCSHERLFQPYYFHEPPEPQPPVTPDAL

Molecule O=S(=O)(CC1CCC1(F)F)Nc1ccc(Oc2ncccc2-c2ccnc(N[C@H]3CCCNC3)n2)c(F)c1F (stereo partly drawn) [Compound 192, N-(2,3-difluoro-4-((3-(2-(((S)-piperidin-3-yl)amino)pyrimidin-4-yl)pyridin-2-yl)oxy)phenyl)-1-(2,2-difluorocyclobutyl)methanesulfonamide hydrochloride] has an IC50 of 9.7 nM.

With O=S(=O)(Cc1ccccc1)Nc1c(F)cc(Oc2ncccc2-c2ccnc(NC3CNCC(C(F)F)C3)n2)c(F)c1F (single isomer, unassigned) [Compound 302, N-(4-((3-(2-((5-(Difluoromethyl)piperidin-3-yl)amino)pyrimidin-4-yl)pyridin-2-yl)oxy)-2,3,6-trifluorophenyl)-1-phenylmethanesulfonamide] the IC50 was 0.44 nM.

COc1cccc(CS(=O)(=O)Nc2c(F)cc(Oc3ncccc3-c3ccnc(N[C@@H]4CNC[C@@H](F)C4)n3)c(F)c2F)c1 [Compound 385, 1-(3-Methoxyphenyl)-N-(2,3,6-trifluoro-4-((3-(2-(((3S,5S)-5-fluoropiperidin-3-yl)amino)pyrimidin-4-yl)pyridin-2-yl)oxy)phenyl)methanesulfonamide] was tested, and the IC50 was 0.2 nM.

Work on Cc1cccc(CS(=O)(=O)Nc2c(F)cc(Oc3ncccc3-c3ccnc(N[C@@H]4CNC[C@@H](F)C4)n3)c(F)c2F)c1 [Compound 383, 1-m-Tolyl-N-(2,3,6-trifluoro-4-((3-(2-(((3S,5S)-5-fluoropiperidin-3-yl)amino)pyrimidin-4-yl)pyridin-2-yl)oxy)phenyl)methanesulfonamide] yielded an IC50 of 0.7 nM.

Work on N#Cc1ccc(CS(=O)(=O)Nc2c(F)cc(Oc3ncccc3-c3ccnc(N[C@@H]4CNC[C@@H](F)C4)n3)c(F)c2F)c(F)c1 [Compound 360] yielded an IC50 of 0.8 nM.

Molecule CCC(F)(F)CS(=O)(=O)Nc1c(F)cc(Oc2ncccc2-c2ccnc(N[C@H]3CCCNC3)n2)c(F)c1F [Compound 194, (S)-2,2-difluoro-N-(2,3,6-trifluoro-4-((3-(2-(piperidin-3-ylamino)pyrimidin-4-yl)pyridin-2-yl)oxy)phenyl)butane-1-sulfonamide] has an IC50 of 4 nM.

Work on O=S(=O)(Cc1ccccc1F)Nc1ccc(Oc2ncccc2-c2ccnc(N[C@H]3CCCNC3)n2)c(F)c1F [Compound 146, (S)-N-(2,3-difluoro-4-((3-(2-(piperidin-3-ylamino)pyrimidin-4-yl)pyridin-2-yl)oxy)phenyl)-1-(2-fluorophenyl)methanesulfonamide hydrochloride] yielded an IC50 of 4 nM.

For CC(C)(F)C1CNCC(Nc2nccc(-c3cccnc3Oc3cc(F)c(NS(=O)(=O)Cc4ccccc4)c(F)c3F)n2)C1 (single isomer, unassigned) [Compound 335, 1-Phenyl-N-(2,3,6-trifluoro-4-((3-(2-((5-(2-fluoropropan-2-yl)piperidin-3-yl)amino)pyrimidin-4-yl)pyridin-2-yl)oxy)phenyl)methanesulfonamide hydrochloride], the IC50 was 330 nM.

Work on CN1CCC[C@H](Nc2nccc(-c3cccnc3Oc3ccc(NS(=O)(=O)Cc4ccccc4)c(F)c3F)n2)C1 [Compound 170, (S)-N-(2,3-difluoro-4-((3-(2-((1-methylpiperidin-3-yl)amino)pyrimidin-4-yl)pyridin-2-yl)oxy)phenyl)-1-phenylmethanesulfonamide] yielded an IC50 of 11 nM.

Molecule O=S(=O)(Cc1ccccc1)Nc1ccc(Oc2ncccc2-c2ccnc(NC3CCNCC3)n2)c(F)c1F [Compound 180, N-(2,3-difluoro-4-((3-(2-(4-piperidylamino)pyrimidin-4-yl)-2-pyridyl)oxy)phenyl)-1-phenyl-methanesulfonamide] has an IC50 of 38 nM.

Molecule Cc1c(Oc2ncccc2-c2ccnc(N[C@@H]3CNC[C@@H](F)C3)n2)cc(F)c(NS(=O)(=O)Cc2c(F)cccc2F)c1F [Compound 293, N-(2,6-Difluoro-4-((3-(2-(((3S,5S)-5-fluoropiperidin-3-yl)amino)pyrimidin-4-yl)pyridin-2-yl)oxy)-3-methylphenyl)-1-(2,6-difluorophenyl)methanesulfonamide] has an IC50 of 0.41 nM.

With CC(F)(F)C1CNCC(Nc2nccc(-c3cccnc3Oc3cc(F)c(NS(=O)(=O)Cc4ccccc4)c(F)c3F)n2)C1 (single isomer, unassigned) [Compound 339, N-(4-((3-(2-((5-(1, l-Difluoroethyl)piperidin-3-yl)amino)pyrimidin-4-yl)pyridin-2-yl)oxy)-2,3,6-trifluorophenyl)-1-phenylmethanesulfonamide] the IC50 was 0.24 nM.

O=C(NCc1cccc(Oc2ncccc2-c2ccnc(N[C@H]3CCCNC3)n2)c1F)C1CC1 [Compound 197, (S)—N-(2-Fluoro-3-((3-(2-(piperidin-3-ylamino)pyrimidin-4-yl)pyridin-2-yl)oxy)benzyl)cyclopropanecarboxamide] was tested, and the IC50 was 490 nM.

For OC(CNc1cccc(Oc2ncccc2-c2ccnc(N[C@H]3CCCNC3)n2)c1F)C(F)(F)F (single isomer, unassigned) [Compound 200], the IC50 was 530 nM.

With C[C@H]1CC[C@H](Nc2nccc(-c3cccnc3Oc3cc(F)c(NS(=O)(=O)Cc4ccccc4)c(F)c3F)n2)CN1 [Compound 257, 1-Phenyl-N-(2,3,6-trifluoro-4-((3-(2-(((3S,6S)-6-methylpiperidin-3-yl)amino)pyrimidin-4-yl)pyridin-2-yl)oxy)phenyl)methanesulfonamide] the IC50 was 24 nM.

O=S(=O)(Cc1ccccc1F)Nc1c(F)cc(Oc2ncccc2-c2ccnc(NC3CNCC(C4CC4)C3)n2)c(F)c1F (single isomer, unassigned) [Compound 327, N-(4-((3-(2-((5-Cyclopropylpiperidin-3-yl)amino)pyrimidin-4-yl)pyridin-2-yl)oxy)-2,3,6-trifluorophenyl)-1-(2-fluorophenyl)methanesulfonamide] was tested, and the IC50 was 0.26 nM.

Work on O=S(=O)(Nc1ccc(Oc2ncccc2-c2ccnc(N[C@H]3CCCNC3)n2)c(F)c1F)c1cccc(OC(F)F)c1 [Compound 208, (S)-N-(2,3-difluoro-4-((3-(2-(piperidin-3-ylamino)pyrimidin-4-yl)pyridin-2-yl)oxy)phenyl)-3-(difluoromethoxy)benzenesulfonamide] yielded an IC50 of 11 nM.

For O=S(=O)(Cc1ccccc1F)Nc1c(F)cc(Oc2ncccc2-c2ccnc(NC3CNCC(C4CC4)C3)n2)c(F)c1F (single isomer, unassigned) [Compound 326, N-(4-((3-(2-((5-Cyclopropylpiperidin-3-yl)amino)pyrimidin-4-yl)pyridin-2-yl)oxy)-2,3,6-trifluorophenyl)-1-(2-fluorophenyl)methanesulfonamide], the IC50 was 0.61 nM.

With Cc1cc(NS(=O)(=O)C2CCCC2)cc(F)c1Oc1ncccc1-c1ccnc(N[C@H]2CCCNC2)n1 [Compound 116, (S)-N-(3-fluoro-5-methyl-4-((3-(2-(piperidin-3-ylamino)pyrimidin-4-yl)pyridin-2-yl)oxy)phenyl)cyclopentanesulfonamide hydrochloride] the IC50 was 23 nM.

In the case of COc1cccc(CS(=O)(=O)Nc2c(F)cc(Oc3ncccc3-c3ccnc(N[C@@H]4CNC[C@@](C)(F)C4)n3)c(F)c2F)c1 [Compound 291, 1-(3-Methoxyphenyl)-N-(2,3,6-trifluoro-4-((3-(2-(((3S,5S)-5-fluoro-5-methylpiperidin-3-yl)amino)pyrimidin-4-yl)pyridin-2-yl)oxy)phenyl)methanesulfonamide], the IC50 is reported as 0.28 nM.

Work on O=S(=O)(Cc1ccc(F)cc1Cl)Nc1c(F)cc(Oc2ncccc2-c2ccnc(N[C@@H]3CNC[C@@H](F)C3)n2)c(F)c1F [Compound 365, 1-(2-Chloro-4-fluoro-phenyl)-N-[2,3,6-trifluoro-4-[[3-[2-[[(3S,5S)-5-fluoro-3-piperidyl]amino]pyrimidin-4-yl]-2-pyridyl]oxy]phenyl]methanesulfonamide] yielded an IC50 of 0.7 nM.

Work on O=S(=O)(Cc1ccccc1)Nc1ccc(Oc2ncccc2-c2ccnc(N[C@@H]3CNC[C@@H](F)C3)n2)c(F)c1F [Compound 112, N-(2,3-difluoro-4-((3-(2-(((3S,5S)-5-fluoropiperidin-3-yl)amino)pyrimidin-4-yl)pyridin-2-yl)oxy)phenyl)-1-phenylmethanesulfonamide] yielded an IC50 of 4.6 nM.

Work on Cc1cc(Oc2ncccc2-c2ccnc(N[C@H]3CCCNC3)n2)c(F)c(F)c1NS(=O)(=O)Cc1ccccc1 [Compound 160, (S)-N-(2,3-difluoro-6-methyl-4-((3-(2-(piperidin-3-ylamino)pyrimidin-4-yl)pyridin-2-yl)oxy)phenyl)-1-phenylmethanesulfonamide] yielded an IC50 of 5.4 nM.

Molecule O=S(=O)(Cc1cccnc1)Nc1c(F)cc(Oc2ncccc2-c2ccnc(N[C@@H]3CNC[C@@H](F)C3)n2)c(F)c1F [Compound 256, 1-(Pyridin-3-yl)-N-(2,3,6-trifluoro-4-((3-(2-(((3S,5S)-5-fluoropiperidin-3-yl)amino)pyrimidin-4-yl)pyridin-2-yl)oxy)phenyl)methanesulfonamide] has an IC50 of 1 nM.

In the case of Cn1ccc(CS(=O)(=O)Nc2c(F)cc(Oc3ncccc3-c3ccnc(N[C@H]4CCCNC4)n3)c(F)c2F)n1 [Compound 236, (S)-1-(1-methyl-1H-pyrazol-3-yl)-N-(2,3,6-trifluoro-4-(3-(2-(piperidin-3-ylamino)pyrimidin-4-yl)pyridin-2-yloxy)phenyl)methanesulfonamide], the IC50 is reported as 9 nM.

O=S(=O)(CCC1CCCCC1)Nc1ccc(Oc2ncccc2-c2ccnc(N[C@H]3CCCNC3)n2)c(F)c1F [Compound 215, (S)-2-cyclohexyl-N-(2,3-difluoro-4-((3-(2-(piperidin-3-ylamino)pyrimidin-4-yl)pyridin-2-yl)oxy)phenyl)ethane-1-sulfonamide] was tested, and the IC50 was 11 nM.

Molecule CCCS(=O)(=O)Nc1cc(C)c(Oc2ncccc2-c2ccnc(N[C@H]3CC[C@H](N)CC3)n2)c(F)c1 [Compound 118, N-(4-((3-(2-(((1r,4r)-4-aminocyclohexyl)amino)pyrimidin-4-yl)pyridin-2-yl)oxy)-3-fluoro-5-methylphenyl)propane-1-sulfonamide hydrochloride] has an IC50 of 47 nM.
